Measured values taken from patent US20230049952A1, “METHODS AND COMPOUNDS FOR RESTORING MUTANT P53 FUNCTION” (PMV Pharmaceuticals, Inc., priority 2020, published 2023).

Tested on: NF-κB signaling pathway in MT373 tumors
Assay: MT373 syngeneic sarcoma model: mouse NF-κB signaling pathway profiling panel
Assay type: in vivo

CCn1c(C#CCNc2ccccc2)cc2cc(CNC3CCN(C)CC3)ccc21 [Compound 1, 1-Anilino-3-{1-ethyl-5-[(1-methyl-4-piperidylamino)methyl]-1H-indol-2-yl}-2-propyne]
Card10 fold increase over or percent reduction vs vehicle control (150 mg/kg BIDx1, 72 h): 1.39 ± 0.49 fold or %
Card11 fold increase over or percent reduction vs vehicle control (150 mg/kg BIDx1, 72 h): 1.52 ± 0.54 fold or %
Casp1 fold increase over or percent reduction vs vehicle control (150 mg/kg BIDx1, 72 h): 9.73 ± 31.75 fold or %
Casp8 fold increase over or percent reduction vs vehicle control (150 mg/kg BIDx1, 72 h): 1.04 ± 0.13 fold or %
Ccl2 fold increase over or percent reduction vs vehicle control (150 mg/kg BIDx1, 72 h): 52.53 ± 13.14 fold or %
Ccl5 fold increase over or percent reduction vs vehicle control (150 mg/kg BIDx1, 72 h): 2.54 ± 37.88 fold or %
Cd27 fold increase over or percent reduction vs vehicle control (150 mg/kg BIDx1, 72 h): 1.53 ± 0.39 fold or %
Cd40 fold increase over or percent reduction vs vehicle control (150 mg/kg BIDx1, 72 h): 20.33 ± 32.50 fold or %
Cflar fold increase over or percent reduction vs vehicle control (150 mg/kg BIDx1, 72 h): 1.10 ± 0.20 fold or %
Chuk fold increase over or percent reduction vs vehicle control (150 mg/kg BIDx1, 72 h): 5.62 ± 25.53 fold or %
Crebbp fold increase over or percent reduction vs vehicle control (150 mg/kg BIDx1, 72 h): 1.12 ± 0.15 fold or %
Csf1 fold increase over or percent reduction vs vehicle control (150 mg/kg BIDx1, 72 h): 3.08 ± 4.37 fold or %
Csf2 fold increase over or percent reduction vs vehicle control (150 mg/kg BIDx1, 72 h): 5.23 ± 19.46 fold or %
Csf3 fold increase over or percent reduction vs vehicle control (150 mg/kg BIDx1, 72 h): 46.68 ± 13.40 fold or %
Egfr fold increase over or percent reduction vs vehicle control (150 mg/kg BIDx1, 72 h): 1.01 ± 0.23 fold or %
Egr1 fold increase over or percent reduction vs vehicle control (150 mg/kg BIDx1, 72 h): 66.09 ± 6.29 fold or %
Eif2ak2 fold increase over or percent reduction vs vehicle control (150 mg/kg BIDx1, 72 h): 5.36 ± 11.08 fold or %
Elk1 fold increase over or percent reduction vs vehicle control (150 mg/kg BIDx1, 72 h): 19.15 ± 11.29 fold or %
F2r fold increase over or percent reduction vs vehicle control (150 mg/kg BIDx1, 72 h): 14.84 ± 13.77 fold or %
Fadd fold increase over or percent reduction vs vehicle control (150 mg/kg BIDx1, 72 h): 1.25 ± 0.13 fold or %
Fasl fold increase over or percent reduction vs vehicle control (150 mg/kg BIDx1, 72 h): 42.85 ± 19.54 fold or %
Fos fold increase over or percent reduction vs vehicle control (150 mg/kg BIDx1, 72 h): 86.19 ± 1.00 fold or %
Hmox1 fold increase over or percent reduction vs vehicle control (150 mg/kg BIDx1, 72 h): 1.03 ± 0.18 fold or %
Icam1 fold increase over or percent reduction vs vehicle control (150 mg/kg BIDx1, 72 h): 1.07 ± 0.18 fold or %
Ifng fold increase over or percent reduction vs vehicle control (150 mg/kg BIDx1, 72 h): 22.04 ± 33.20 fold or %
Ikbkb fold increase over or percent reduction vs vehicle control (150 mg/kg BIDx1, 72 h): 1.24 ± 0.27 fold or %
Ikbke fold increase over or percent reduction vs vehicle control (150 mg/kg BIDx1, 72 h): 2.05 ± 40.34 fold or %
Ikbkg fold increase over or percent reduction vs vehicle control (150 mg/kg BIDx1, 72 h): 1.06 ± 0.32 fold or %
Il1a fold increase over or percent reduction vs vehicle control (150 mg/kg BIDx1, 72 h): 63.60 ± 11.55 fold or %
Il1b fold increase over or percent reduction vs vehicle control (150 mg/kg BIDx1, 72 h): 84.09 ± 6.24 fold or %
Il1r1 fold increase over or percent reduction vs vehicle control (150 mg/kg BIDx1, 72 h): 9.26 ± 29.81 fold or %
Il10 fold increase over or percent reduction vs vehicle control (150 mg/kg BIDx1, 72 h): 12.42 ± 41.31 fold or %
Irak1 fold increase over or percent reduction vs vehicle control (150 mg/kg BIDx1, 72 h): 4.37 ± 14.84 fold or %
Irak2 fold increase over or percent reduction vs vehicle control (150 mg/kg BIDx1, 72 h): 1.07 ± 0.14 fold or %
Irf1 fold increase over or percent reduction vs vehicle control (150 mg/kg BIDx1, 72 h): 1.06 ± 0.20 fold or %
Jun fold increase over or percent reduction vs vehicle control (150 mg/kg BIDx1, 72 h): 26.30 ± 10.41 fold or %
Lta fold increase over or percent reduction vs vehicle control (150 mg/kg BIDx1, 72 h): 26.12 ± 35.38 fold or %
Ltbr fold increase over or percent reduction vs vehicle control (150 mg/kg BIDx1, 72 h): 1.05 ± 0.08 fold or %
Map3k1 fold increase over or percent reduction vs vehicle control (150 mg/kg BIDx1, 72 h): 1.25 ± 0.28 fold or %
Mapk3 fold increase over or percent reduction vs vehicle control (150 mg/kg BIDx1, 72 h): 1.22 ± 0.17 fold or %
Myd88 fold increase over or percent reduction vs vehicle control (150 mg/kg BIDx1, 72 h): 37.76 ± 10.69 fold or %
Nfkb1 fold increase over or percent reduction vs vehicle control (150 mg/kg BIDx1, 72 h): 1.06 ± 0.05 fold or %
Nfkb2 fold increase over or percent reduction vs vehicle control (150 mg/kg BIDx1, 72 h): 1.30 ± 0.23 fold or %
Nfkbia fold increase over or percent reduction vs vehicle control (150 mg/kg BIDx1, 72 h): 6.09 ± 32.11 fold or %
Nod1 fold increase over or percent reduction vs vehicle control (150 mg/kg BIDx1, 72 h): 1.26 ± 0.26 fold or %
Raf1 fold increase over or percent reduction vs vehicle control (150 mg/kg BIDx1, 72 h): 4.12 ± 9.21 fold or %
Rel fold increase over or percent reduction vs vehicle control (150 mg/kg BIDx1, 72 h): 1.09 ± 0.23 fold or %
Rela fold increase over or percent reduction vs vehicle control (150 mg/kg BIDx1, 72 h): 1.01 ± 0.08 fold or %
Relb fold increase over or percent reduction vs vehicle control (150 mg/kg BIDx1, 72 h): 3.68 ± 22.32 fold or %
Ripk1 fold increase over or percent reduction vs vehicle control (150 mg/kg BIDx1, 72 h): 1.11 ± 0.09 fold or %
Ripk2 fold increase over or percent reduction vs vehicle control (150 mg/kg BIDx1, 72 h): 29.79 ± 5.69 fold or %
Slc20a1 fold increase over or percent reduction vs vehicle control (150 mg/kg BIDx1, 72 h): 36.31 ± 7.52 fold or %
Smad3 fold increase over or percent reduction vs vehicle control (150 mg/kg BIDx1, 72 h): 1.09 ± 0.18 fold or %
Stat1 fold increase over or percent reduction vs vehicle control (150 mg/kg BIDx1, 72 h): 1.20 ± 0.20 fold or %
Tbk1 fold increase over or percent reduction vs vehicle control (150 mg/kg BIDx1, 72 h): 1.17 ± 0.15 fold or %
Tlr1 fold increase over or percent reduction vs vehicle control (150 mg/kg BIDx1, 72 h): 1.52 ± 0.56 fold or %
Tlr2 fold increase over or percent reduction vs vehicle control (150 mg/kg BIDx1, 72 h): 1.05 ± 0.16 fold or %
Tlr3 fold increase over or percent reduction vs vehicle control (150 mg/kg BIDx1, 72 h): 5.46 ± 14.97 fold or %
Tlr4 fold increase over or percent reduction vs vehicle control (150 mg/kg BIDx1, 72 h): 1.13 ± 0.27 fold or %
Tlr6 fold increase over or percent reduction vs vehicle control (150 mg/kg BIDx1, 72 h): 1.25 ± 0.31 fold or %
Tlr9 fold increase over or percent reduction vs vehicle control (150 mg/kg BIDx1, 72 h): 1.78 ± 0.32 fold or %
Tnf fold increase over or percent reduction vs vehicle control (150 mg/kg BIDx1, 72 h): 3.41 ± 24.15 fold or %
Tnfaip3 fold increase over or percent reduction vs vehicle control (150 mg/kg BIDx1, 72 h): 10.12 ± 40.91 fold or %
Tnfrsf1a fold increase over or percent reduction vs vehicle control (150 mg/kg BIDx1, 72 h): 1.18 ± 0.13 fold or %
Tnfrsf1b fold increase over or percent reduction vs vehicle control (150 mg/kg BIDx1, 72 h): 1.52 ± 0.29 fold or %
Tnfrsf10b fold increase over or percent reduction vs vehicle control (150 mg/kg BIDx1, 72 h): 1.17 ± 0.22 fold or %
Tnfsf10 fold increase over or percent reduction vs vehicle control (150 mg/kg BIDx1, 72 h): 1.09 ± 0.21 fold or %
Tnfsf14 fold increase over or percent reduction vs vehicle control (150 mg/kg BIDx1, 72 h): 1.34 ± 0.30 fold or %
Tollip fold increase over or percent reduction vs vehicle control (150 mg/kg BIDx1, 72 h): 1.11 ± 0.10 fold or %
Tradd fold increase over or percent reduction vs vehicle control (150 mg/kg BIDx1, 72 h): 1.10 ± 0.24 fold or %
Traf2 fold increase over or percent reduction vs vehicle control (150 mg/kg BIDx1, 72 h): 1.17 ± 0.13 fold or %
Traf3 fold increase over or percent reduction vs vehicle control (150 mg/kg BIDx1, 72 h): 3.24 ± 6.50 fold or %
Traf5 fold increase over or percent reduction vs vehicle control (150 mg/kg BIDx1, 72 h): 1.24 ± 0.14 fold or %
Traf6 fold increase over or percent reduction vs vehicle control (150 mg/kg BIDx1, 72 h): 1.17 ± 0.24 fold or %
Zap70 fold increase over or percent reduction vs vehicle control (150 mg/kg BIDx1, 72 h): 1.52 ± 0.48 fold or %
Agt fold increase over or percent reduction vs vehicle control (150 mg/kg BIDx1, […]): 50.51 ± 41.92 fold or %
Akt1 fold increase over or percent reduction vs vehicle control (150 mg/kg BIDx1, […]): 8.16 ± 7.88 fold or %
Atf1 fold increase over or percent reduction vs vehicle control (150 mg/kg BIDx1, […]): 1.13 ± 0.30 fold or %
Atf2 fold increase over or percent reduction vs vehicle control (150 mg/kg BIDx1, […]): 1.00 ± 0.20 fold or %
Bcl2a1a fold increase over or percent reduction vs vehicle control (150 mg/kg BIDx1, […]): 4.90 ± 3.38 fold or %
Bcl2l1 fold increase over or percent reduction vs vehicle control (150 mg/kg BIDx1, […]): 1.00 ± 0.07 fold or %
Bcl3 fold increase over or percent reduction vs vehicle control (150 mg/kg BIDx1, […]): 14.36 ± 16.67 fold or %
Bcl10 fold increase over or percent reduction vs vehicle control (150 mg/kg BIDx1, […]): 1.18 ± 0.09 fold or %
Birc3 fold increase over or percent reduction vs vehicle control (150 mg/kg BIDx1, […]): 1.10 ± 0.26 fold or %
Card10 fold increase over or percent reduction vs vehicle control (150 mg/kg BIDx1, […]): 40.14 ± 8.96 fold or %
Card11 fold increase over or percent reduction vs vehicle control (150 mg/kg BIDx1, […]): 1.85 ± 0.30 fold or %
Casp1 fold increase over or percent reduction vs vehicle control (150 mg/kg BIDx1, […]): 1.82 ± 0.71 fold or %
Casp8 fold increase over or percent reduction vs vehicle control (150 mg/kg BIDx1, […]): 1.14 ± 0.07 fold or %
Ccl2 fold increase over or percent reduction vs vehicle control (150 mg/kg BIDx1, […]): 1.47 ± 0.35 fold or %
